Measured values reported in ChEMBL document CHEMBL4400517, “Marine natural products as potential anti-tubercular agents” (Eur J Med Chem, 2019).
Values after ≈ are worked out from the molar mass of the structure shown.

These compounds were tested on Mycobacterium tuberculosis (assay: Antibiofilm activity against Mycobacterium bovis BCG after 5 weeks). Settings: variant bovis BCG.
Type: functional

Row | SMILES | MIC
1 | CC(C)=C/C=C\[C@H](C)[C@H]1CC[C@]2(C)C[C@H]3[C@H](C(=O)C[C@@]3(C)O)/C(C=O)=C\C[C@@H]12 | 8.2 µM (≈ 3.15 µg/mL)

What follows are compounds tested on Mycobacterium tuberculosis (assay: Antimycobacterial activity against Mycobacterium bovis BCG). Settings: variant bovis BCG.
Type: functional

Row | SMILES | MIC
2 | COC(=O)N[C@H]1[C@@H](C)O[C@@H](O[C@H]2C/C=C(\C)[C@@H]3C=C[C@@H]4[C@@H](O[C@@H]5C[C@@H](O[C@@H]6C[C@@H](O)[C@@H](O[C@H]7C[C@@H](C)[C@H](OC)[C@H](O)C7)[C@H](C)O6)[C@@H](O)[C@H](C)O5)[C@@H](C)C[C@H](C)[C@H]4[C@]3(C)C(=O)C3=C(O)[C@@]4(C[C@@H](C)C(CO)=C[C@H]4/C=C/2C)OC3=O)C[C@]1(C)N | 1.35 µM (≈ 1.56 µg/mL)
3 | C=CC(C)(C)c1[nH]c2ccccc2c1/C=c1\[nH]c(=O)c2n(c1=O)CCC=2C1=c2c(=O)[nH]/c(=C\c3c(C(C)(C)C=C)[nH]c4ccccc34)c(=O)n2CC1 | 9.03 µM (≈ 6.26 µg/mL)
4 | COC(=O)N[C@H]1[C@@H](C)O[C@@H](O[C@H]2C/C=C(\C)[C@@H]3C=C[C@@H]4[C@@H](O[C@@H]5C[C@@H](O[C@@H]6C[C@@H](O)[C@@H](O[C@H]7C[C@@H](C)[C@H](OC)[C@H](O)C7)[C@H](C)O6)[C@@H](O)[C@H](C)O5)[C@@H](C)C[C@H](C)[C@H]4[C@]3(C)C(=O)C3=C(O)[C@@]4(C[C@@H](C)C(COC(C)=O)=C[C@H]4/C=C/2C)OC3=O)C[C@]1(C)N | 1.3 µM (≈ 1.56 µg/mL)
5 | COC(=O)N[C@H]1[C@@H](C)O[C@@H](O[C@H]2C/C=C(\C)[C@@H]3C=C[C@@H]4[C@@H](O[C@@H]5C[C@@H](O[C@@H]6C[C@@H](O)[C@@H](O[C@H]7C[C@@H](C)[C@H](OC)[C@H](O)C7)[C@H](C)O6)[C@@H](O)[C@H](C)O5)[C@@H](C)C[C@H](C)[C@H]4[C@]3(C)C(=O)C3=C(O)[C@@]4(C[C@@H](C)C(CO)=C[C@H]4/C=C/2C)OC3=O)C[C@]1(C)[N+](=O)[O-] | 0.66 µM (≈ 0.782 µg/mL)
6 | COc1ccc2c(c1)CC1=C2[C@H](O)[C@@]2(O)C(=O)N3CCC[C@H]3C(=O)N2[C@H]1C=C(C)C | 2.41 µM (≈ 0.989 µg/mL)
7 | C1=C2CCCC/C=C\C=C\CCN3CC[C@@H]4[C@H](CCCCCC/C=C\C=C/CCN(C2)C[C@H]14)C3 (relative stereo) [HALICYCLAMINE A] | 2.16 to 10.8 µM (≈ 1 to 5.01 µg/mL)
8 | O=C1N[C@@H](Cc2c[nH]c3ccccc23)C(=O)N2CCC[C@@H]12 [BREVIANAMIDE F] | 44.2 µM (≈ 12.5 µg/mL)
9 | NNC(=O)c1ccncc1 [ISONIAZID] | 0.36 µM (≈ 0.0494 µg/mL)
10 | COC(=O)Nc1coc(C(=O)Nc2coc(C(=O)NCCc3ccc(O)cc3)c2)c1 [PROXIMICIN B] | 15.1 µM (≈ 6.25 µg/mL)

These compounds were tested on Mycobacterium tuberculosis (assay: Antibiofilm activity against Mycobacterium bovis BCG). Settings: variant bovis BCG.
Type: functional, organism-based

Row | SMILES | IC50
11 | CC(C)=C1C[C@H]2C(C)(C)[C@@]3(Br)C(=O)c4c(O)cc(O)cc4[C@]2(C1)C3=O | 220 to 13900 nM
12 | COc1cc(O)c2c(c1)[C@@]13CC(=C(C)C)C[C@H]1[C@](C)(CCC=C(C)C)[C@@](Br)(C2=O)C3=O | 640 to 10300 nM
13 | COc1cc(OC)c2c(c1)[C@@]13CC(=C(C)C)C[C@H]1[C@](C)(CCC=C(C)C)[C@@](Br)(C2=O)C3=O | 160 to 2500 nM
14 | CO[C@H]1/C=C/O[C@@]2(C)Oc3c(C)c(O)c4c(O)c(c(/C=N/N5CCN(C)CC5)c(O)c4c3C2=O)NC(=O)/C(C)=C\C=C\[C@H](C)[C@H](O)[C@@H](C)[C@@H](O)[C@@H](C)[C@H](OC(C)=O)[C@@H]1C [RIFAMPIN] | 1220 nM
